From patent US11617741B1, “Method for inhibiting growth of bacteria” (priority 2021, dated 2023)
In brackets after ≈: the same amount, converted by molar mass. Where two headings read alike, the source gives them in different places. Marks after values point to notes of the source that are not given here.

Tests used:
[1] = test system: glyQS T-box; test: qRT-PCR transcriptional read-through of T-box-regulated glyQS (confirmation of inhibition of T-box mechanism); format: cell-based, Bacillus subtilis 1A5; details: for T-Box targeting: confirmation of inhibition of T-box mechanism from qRT-PCR assay; for T-box-controlled expression of glyQS (termination of read-through): B. subtilis 1A5, increasing concentrations, minimal media; for inhibition of read-through compared with PKZ18: 4 μg/ml of each drug, side by side in same biological replicate
Source text: Sample preparation of RNA and cDNA.

[2] = test system: PKZRSA1 (PKZ18-22-resistant MRSA); test: MICs against PKZ18-22-resistant mutant compared to WT MRSA; format: cell-based, Staphylococcus aureus
Experimental: (§1) The 96-well plate was organized as follows. Media (100 μl) were added to all wells.

[3] = test system: T-box controlled genes in MRSA; test: RNA sequencing of MRSA grown in minimal media; format: cell-based, Staphylococcus aureus; details: 4 μg/ml, control antibiotic
[4] = test system: E. coli; test: Minimum inhibitory and bactericidal concentration determination, Gram-negative control; format: cell-based, Escherichia coli; details: for MBC E. coli: value in parentheses
Experimental: as §1

[5] = test system: S. aureus N315 (MRSA isolate); test: Minimum inhibitory and bactericidal concentration determination; format: cell-based, Staphylococcus aureus; details: for MIC S. aureus N315: Table 2; for MBC S. aureus N315: Table 2, value in parentheses; for change of MIC in minimal media compared to rich media: S. aureus N315; for MIC: Staphylococcus aureus, MRSA
Experimental: as §1

[6] = test system: B. subtilis 168; test: Minimum inhibitory concentration determination; format: cell-based, Bacillus subtilis
Experimental: as §1

[7] = test system: S. aureus N315; test: Checkerboard assay and FIC; format: cell-based, Staphylococcus aureus
Experimental: S. aureus N315 cultures were prepared identically to MIC determination in BHI media. The co-MICs were determined using the checkerboard method. In short, antibiotics to be tested with PKZ18 analogs were diluted 2-fold top to bottom (A to G rows) in a 96-well plate, PKZ18 analogs were diluted 2-fold right to left (columns 11-2 of the 96-well plate), and column 12 was used for vector, media, and growth controls. Each drug was therefore tested by itself and with every dilution of the other drug.
The synergistic and additive interactions were determined based on determined cutoffs using the equation
[formula] where MICAB is the lowest possible concentration of both drugs combined where there is no growth, and MICA and MICB are the MIC values of the individual drugs. For a synergistic drug interaction, the fractional inhibitory concentration (FIC) should be below 0.5, additive or indifferent effects are considered in an FIC range of 0.5 to <4, and an FIC value above 4 is considered antagonistic.

[8] = test system: S. aureus N315 (MRSA); test: Antibiotic resistance frequency (fluctuation assay); format: cell-based, Staphylococcus aureus; details: MRSA plated on 64 μg/ml PKZ18-22 or 10 μg/ml gentamicin
Source text: Gentamicin on BHI agar was used as a control.

| Compound | T-Box targeting ([1]; Table 1) | T-Box targeting ([1]; Table 2) | MIC E. coli [4] [µg/mL] | MBC E. coli [4] [µg/mL] | MIC S. aureus N315 [5] [µg/mL] | MBC S. aureus N315 [5] [µg/mL] | also measured |
| --- | --- | --- | --- | --- | --- | --- | --- |
| CCc1ccc(-c2csc(NC(=O)C3C4CCC(C4=C(C)C)C3C(=O)O)n2)cc1 (stereo not shown) [PKZ18-58] | No | No |  |  |  |  |  |
| CCCCCCCCCC(=O)N[C@@H](Cc1c[nH]c2ccccc12)C(=O)N[C@H](CC(N)=O)C(=O)N[C@@H](CC(=O)O)C(=O)N[C@@H]1C(=O)NCC(=O)N[C@@H](CCCN)C(=O)N[C@@H](CC(=O)O)C(=O)N[C@H](C)C(=O)N[C@@H](CC(=O)O)C(=O)NCC(=O)N[C@H](CO)C(=O)N[C@@H]([C@H](C)CC(=O)O)C(=O)N[C@@H](CC(=O)c2ccccc2N)C(=O)O[C@@H]1C [daptomycin, reference compound] |  |  |  |  |  |  | change in the MIC between WT and PKZRSA1 [2]: no change; expression and read-through of T-box-controlled genes [3]: lower than untreated for many of the genes; initiation of T-box-controlled genes [3]: did not significantly affect |
| COc1ccc(-c2csc(NC(=O)C3C4CCC(C4)C3C(=O)O)n2)cc1 (stereo not shown) [PKZ18-55] | No | No | > 256 | > 256 | > 256 | > 256 |  |
| CO[C@H]1/C=C/O[C@@]2(C)Oc3c(C)c(O)c4c(O)c(c(/C=N/N5CCN(C)CC5)c(O)c4c3C2=O)NC(=O)/C(C)=C\C=C\[C@H](C)[C@H](O)[C@@H](C)[C@@H](O)[C@@H](C)[C@H](OC(C)=O)[C@@H]1C [rifampin] |  |  |  |  |  |  | change in the MIC between WT and PKZRSA1 [2]: no change |
| C/C(=C\C(=O)OCCCCCCCCC(=O)O)C[C@@H]1OC[C@H](C[C@@H]2O[C@H]2[C@@H](C)[C@H](C)O)[C@@H](O)[C@H]1O [Mupirocin, reference compound] |  |  |  |  |  |  | change in the MIC between WT and PKZRSA1 [2]: no change; change of MIC in minimal media compared to rich media [5]: increased MICs; MIC ([5]; S. aureus N315, minimal media, read-out: MIC against S. aureus in minimal media): 1 µg/mL (≈ 2 µM); MIC ([5]; S. aureus N315, rich media, read-out: MIC against S. aureus in rich media): 0.25 µg/mL (≈ 0.499 µM) |
| Cc1sc(NC(=O)C2C3CCC(O3)C2C(=O)O)nc1-c1ccc(CC(C)C)cc1 (stereo not shown) [PKZ18-57] | No | No | > 256 | > 256 | > 256 | > 256 |  |
| O=C(N[C@H](CO)[C@H](O)c1ccc([N+](=O)[O-])cc1)C(Cl)Cl [chloramphenicol] |  |  |  |  |  |  | fold lower MIC for PKZRSA1 than WT MRSA [2]: 2 fold |
| CC(C)c1ccc(-c2csc(NC(=O)C3C4CCC(C4)C3C(=O)O)n2)cc1 (stereo not shown) [PKZ18-21] | Yes | Yes | > 256 | > 256 | 64 (≈ 166 µM) | > 256 | T-box-controlled expression of glyQS (termination of read-through) [1]: inhibited |
| Gentamicin [reference compound] |  |  |  |  |  |  | MIC against B. subtilis 168 in minimal media ([6]; minimal media): 0.25 µg/mL; MIC against B. subtilis 168 in rich media ([6]; rich media): 0.125 µg/mL; fold decrease in the MIC of gentamicin ([7]; in combination with PKZ18-22): 8 fold; fold increase in MIC against PKZRSA1 compared to WT [2]: 2 fold; resistance frequency [8]: 1.6×10^−7; change of MIC in minimal media compared to rich media [5]: increased MICs; MIC against S. aureus in minimal media ([5]; S. aureus N315, minimal media): 2.0^b μg/ml; MIC against S. aureus in rich media ([5]; S. aureus N315, rich media): 0.5^b μg/ml |
| Cc1onc(-c2ccccc2)c1C(=O)N[C@@H]1C(=O)N2[C@@H]1SC(C)(C)[C@@H]2C(=O)O [oxacillin] |  |  |  |  |  |  | fold increase in MIC against PKZRSA1 compared to WT [2]: 16 fold |
| Cc1sc(NC(=O)C2C3C=CC(C3)C2C(=O)O)nc1-c1ccc(CC(C)C)cc1 (stereo not shown) [PKZ18-53] | Yes | Yes | > 256 | > 256 | 32 (≈ 77.9 µM) | 64 (≈ 156 µM) | inhibition of read-through compared with PKZ18 [1]: significantly better than PKZ18; T-box-controlled expression of glyQS (termination of read-through) [1]: inhibited; fractional inhibitory concentration FIC ([7]; with ampicillin): 0.75; fractional inhibitory concentration FIC ([7]; with chloramphenicol): 0.75; fractional inhibitory concentration FIC ([7]; with gentamicin): 0.38; fold reduction in MIC in minimal compared to rich media ([5]; MRSA strain S. aureus N315): 2 fold; MIC against S. aureus in minimal media ([5]; S. aureus N315, minimal media): 16^b μg/ml; MIC against S. aureus in rich media ([5]; S. aureus N315, rich media): 32^b μg/ml |
| CCCCc1ccc(-c2nc(NC(=O)C3C4C=CC(C4)C3C(=O)O)sc2C)cc1 (stereo not shown) [PKZ18-52] | Yes | Yes | > 256 | > 256 | 32 (≈ 77.9 µM) | 64 (≈ 156 µM) | inhibition of read-through compared with PKZ18 [1]: significantly better than PKZ18; T-box-controlled expression of glyQS (termination of read-through) [1]: inhibited; fractional inhibitory concentration FIC ([7]; with gentamicin): 0.38; MIC against S. aureus in minimal media ([5]; S. aureus N315, minimal media): 16^b μg/ml; MIC against S. aureus in rich media ([5]; S. aureus N315, rich media): 16-32^b μg/ml |
| CCCCc1ccc(-c2nc(NC(=O)C3C4CCC(O4)C3C(=O)O)sc2C)cc1 (stereo not shown) [PKZ18-54] | No | No | > 256 | > 256 | 128 (≈ 309 µM) | 256 (≈ 618 µM) |  |
| CCCc1ccc(-c2nc(NC(=O)C3C4CCC(O4)C3C(=O)O)sc2C)cc1 (stereo not shown) [PKZ18-56] | No | No | > 256 | > 256 | > 256 | > 256 |  |
